In EP3360574B1, “MEDICINAL COMPOSITION FOR AMELIORATING AND TREATING INTERVERTEBRAL DISC DEGENERATION AND LOW BACK PAIN, AND METHOD FOR SCREENING THERAPEUTIC AGENT” (Keio University, priority 2015, dated 2017):

Tests used:
[1] = system: COX-2 mRNA expression; experiment: Effect of MAPK inhibitors on COX-2 gene expression under oxidative stress (RT-PCR); type: cell-based, rat; conditions: MAPK inhibitor 10 µM, 30 minutes later 100 µM hydrogen peroxide or 1 mM BSO; RT-PCR 24 hours later
Description: Hydrogen peroxide or BSO was added to rat annulus fibrosus cells in the presence of MAPK inhibitors, and their effects on an increase in COX-2 mRNA expression were analyzed. The MAPK inhibitors used were PD98059 (ERK inhibitor; represented by PD in Figure 3), SP600125 (JNK inhibitor; represented by SP in Figure 3), and SB203580 (p38 inhibitor; represented by SB in Figure 3) (all manufactured by Wako Pure Chemical Industries, Ltd.). These MAPK inhibitors were each added at concentration of 10 µM to a medium, and 30 minutes later, 100 µM hydrogen peroxide or 1 mM BSO was added thereto. The expression of COX-2 was analyzed by RT-PCR 24 hours later.

[2] = system: rat annulus fibrosus cells; experiment: Alteration in gene expression by oxidative stress inducers (RT-PCR); type: cell-based; conditions: 24 hours
Description: (§1) Total RNA was prepared using RNeasy Mini kit (manufactured by Qiagen N.V.) or TRIzol Reagent (manufactured by Thermo Fisher Scientific Inc.). cDNA was synthesized using Prime Script RT Reagent Kit (manufactured by Takara Bio Inc.).
(§2) RT-PCR amplification was performed with Thermal Cycler Dice Real-Time System (manufactured by Takara Bio Inc.) using SYBR Premix Ex Taq (manufactured by Takara Bio Inc.). Expression was normalized to β-actin or hypoxanthine phosphoribosyl transferase (HPRT). The results were analyzed by the ddCt method.
(§3) The PCR primers used were as follows: • TNF-α (F) : 5'-[…]-3' (SEQ ID NO: 1) (R) : 5'-[…]-3' (SEQ ID NO: 2) • MMP-3 (F) : 5'-[…]-3' (SEQ ID NO: 3) (R) : 5'-[…]-3' (SEQ ID NO: 4) • COX-2 (F) : 5'-[…]-3' (SEQ ID NO: 5) (R) : 5'-[…]-3' (SEQ ID NO: 6) • AGC1 (F) : 5'-[…]-3' (SEQ ID NO: 7) (R) : 5'-[…]-3' (SEQ ID NO: 8) • β-actin (F) : 5'-[…]-3' (SEQ ID NO: 9) (R) : 5'-[…]-3' (SEQ ID NO: 10) • HPRT (F) : 5'-[…]-3' (SEQ ID NO: 11) (R) : 5'-[…]-3' (SEQ ID NO: 12)
(§4) Rat annulus fibrosus cells were prepared as follows: rat annulus fibrosus tissues were dissected from the lumbar and coccyx intervertebral discs of 8-week-old female Wistar rats, treated with DMEM containing 0.04% pronase E (manufactured by SERVA Electrophoresis GmbH) at 37°C for 1 hour, and subsequently treated with 0.025% collagenase P (manufactured by Roche Diagnostics K.K.) at 37°C for 4 hours for isolation. The isolated cells were washed with Dulbecco's modified Eagle's medium (DMEM, manufactured by Invitrogen Corp.) containing 5% heat-inactivated fetal bovine serum (manufactured by JRH Biosciences Lenexa). The isolated annulus fibrosus cells were cultured in DMEM containing 10% fetal bovine serum and 1% penicillin-streptomycin under conditions of 5% CO2 at 37°C. The cells were used within the first five passages for analysis.
Rat annulus fibrosus cells were cultured in a medium added with hydrogen peroxide (concentration: 10 µM and 100 µM) or BSO (concentration: 0.2 mM and 1 mM) for 24 hours and collected. RNA was extracted, and the mRNA expression of TNF-α, MMP-3, COX-2, and aggrecan was quantitatively measured by RT-PCR. RNA extraction and RT-PCR were performed in the same way as in the model animals described above.

[3] = system: MAPKs (p38, ERK, and JNK); experiment: MAPK phosphorylation after oxidative stress (Western blotting); type: cell-based, rat; conditions: for phosphorylation of the MAPKs p38, ERK, and JNK: 10 minutes after treatment
Description: Western blotting was performed by a standard method.
Downstream signals of oxidative stress were studied. The involvement of MAPKs (p38, ERK, and JNK) in the downstream system of signals induced by reactive oxygen species was analyzed. […] Protein extraction and Western blotting were performed in the same way as in the experiment using the animal models described above.
Detection was performed using an anti-p38 antibody, an anti-phosphorylated p38 antibody, an anti-JNK antibody, an anti-phosphorylated JNK antibody, an anti-ERK antibody, an anti-phosphorylated ERK antibody, an anti-NF-KB p65 antibody, an anti-phosphorylated NF-κB p65 antibody, or an anti-β-actin antibody (all manufactured by Cell Signaling Technology, Inc.) as a primary antibody, a HRP-conjugated goat anti-rabbit antibody (manufactured by Sigma-Aldrich Co. LLC) as a secondary antibody, and ECL Western Blotting Detection Reagent.
Likewise, downstream signals of oxidative stress were studied by the addition of BSO. Annulus fibrosus cells were treated with 1 mM BSO, collected 0, 5, 10, 30, or 60 minutes later, and analyzed by Western blotting.

[4] = system: rat annulus fibrosus cells; experiment: Intracellular level of reactive oxygen species (MitoTracker Orange staining, cell sorter); type: cell-based
Description: as §4

[5] = system: rat annulus fibrosus cells; experiment: Effect of antioxidants on gene expression under oxidative stress induced by hydrogen peroxide or BSO (RT-PCR); type: cell-based; conditions: 24 hours
Description: as §1, §2, §3
100 µM hydrogen peroxide or 1 mM BSO was added to rat annulus fibrosus cells in the presence of 100 µM NAC, and the cells were cultured for 24 hours, followed by the measurement of the mRNA expression of TNF-α, MMP-3, COX-2, and aggrecan (Figures 4A and 4B).
Hydrogen peroxide or BSO was added to rat annulus fibrosus cells in the presence of 20 mM α-tocopherol, and the cells were cultured for 24 hours, followed by the measurement of the mRNA expression of TNF-α, MMP-3, COX-2, and aggrecan (Figures 5A and 5B). Here, ethanol was used as a solvent for α-tocopherol. Cells cultured in a medium added only with ethanol were used as a control.

[6] = system: rat annulus fibrosus cells; experiment: Effect of antioxidants on oxidative stress induced by TNF-α (gene expression by RT-PCR); type: cell-based; conditions: 24 hours
Description: Next, NAC or tocopherol was analyzed for whether to reduce oxidative stress induced by TNF-α by its addition. 50 ng/ml of TNF-α was added to cells in the presence of 100 µM NAC or 20 mM α-tocopherol, and the cells were collected 24 hours later, followed by gene expression analysis on MMP-3, COX-2, and aggrecan by RT-PCR (Figures 6C and 6D). NAC and tocopherol were also shown to suppress oxidative stress induced by the addition of TNF-α.

[7] = system: MAPK signaling cascade; experiment: Effect on MAPK signaling cascade activation caused by TNF-α (Western blotting); type: cell-based, rat; conditions: 50 ng/ml TNF-α in the presence of 100 µM NAC
Description: NAC was also analyzed for whether to suppress phosphorylation in the MAPK signaling cascade generating downstream signals of oxidative stress (Figure 6E). In the same way as above, cells were treated with 50 ng/ml TNF-α in the presence of 100 µM NAC and analyzed by Western blotting.

[8] = system: intervertebral disc degeneration; conditions: procedures for causing degeneration carried out after 1-week oral administration; Non Patent Literature 5; cited from earlier work
[9] = system: intervertebral disc degeneration models; experiment: Rat caudal intervertebral disc puncture model, Q-space imaging (QSI) analysis; type: in vivo
Description: (§5) The present inventors prepared rat intervertebral disc degeneration models in the same way as above and conducted QSI analysis. Here, the QSI analysis was conducted using our uniquely developed program, though the analysis can employ software such as dTV II FZR. A puncture group, a NAC group, and a control group each involving 5 rats were subjected to the respective procedures and analyzed. […] The comparison of analysis results among the control group (a and d), the puncture group (b and e), and the NAC group (c and f) is shown.

[10] = system: intervertebral disc degeneration models; experiment: Rat caudal intervertebral disc puncture model, therapeutic administration, T2-weighted MRI; type: in vivo, Wistar rats
Description: The involvement of oxidative stress in intervertebral disc degeneration was studied. The caudal intervertebral discs of 8-week-old Wistar rats were punctured using a 23-G needle to prepare intervertebral disc degeneration models. A group that underwent only development without puncture (sham group) was used as a control group. Two months after the puncture, the T2 intramedullary high-intensity area was measured by MRI (GE Sigma Excite HD 1.5T, manufactured by GE Healthcare Corp.) under the following conditions: TR/TE, 3000/86; echo train length, 12; slice thickness, 2 mm; FOV, 10 cm; matrix size 352X224; NEX, 10 times.
The caudal intervertebral discs of 8-week-old female Wistar rats were punctured using a 23-G needle to prepare intervertebral disc degeneration models. The animals were divided into a group given NAC water (1 g/L) from 1 week after the puncture (NAC group) and a group raised with normal water (puncture group). A group that underwent only development without puncture (control group) was used as a control. Whether or not the administration of NAC would suppress intervertebral disc degeneration was studied 2 months after the puncture (see Figure 7A). The average body weight of the rats during the administration of NAC water was 220 g, and the average water intake of 24 hours was 35 g; thus, the rats took 159 mg/kg/day of NAC on average per day. The items to be studied were histological evaluation and a T2 intramedullary high-intensity area by MRI.
as §5

[11] = hydrogen peroxide 10 µM and 100 µM
[12] = 20 mM α-tocopherol, hydrogen peroxide or BSO, ethanol control
[13] = puncture group versus NAC group
[14] = 100 µM NAC, 100 µM hydrogen peroxide or 1 mM BSO

SMILES: C[S+]([O-])c1ccc(-c2nc(-c3ccncc3)c(-c3ccc(F)cc3)[nH]2)cc1 (stereo not drawn) [SB]
- expression of COX-2 [1]: significantly suppressed

SMILES: OO [hydrogen peroxide]
- mRNA expression of COX-2 [2, 11]: concentration-dependent increase
- mRNA expression of MMP-3 [2, 11]: concentration-dependent increase
- mRNA expression of TNF-α [2, 11]: concentration-dependent increase
- mRNA expression of aggrecan [2, 11]: reduced in a concentration-dependent manner
- phosphorylation of the MAPKs p38, ERK, and JNK ([3]; 100 µM hydrogen peroxide): strongly phosphorylated
- intracellular level of reactive oxygen species ([4]; 100 µM hydrogen peroxide for 24 hours): increase

SMILES: COc1cccc(-c2cc(=O)c3ccccc3o2)c1N [PD]
- expression of COX-2 [1]: significantly suppressed

SMILES: CCCCS(=N)(=O)CCC(N)C(=O)O (stereo not drawn) [BSO, buthionine sulfoximine]
- mRNA expression of COX-2 ([2]; BSO 0.2 mM and 1 mM): concentration-dependent increase
- mRNA expression of MMP-3 ([2]; BSO 0.2 mM and 1 mM): concentration-dependent increase
- mRNA expression of TNF-α ([2]; BSO 0.2 mM and 1 mM): concentration-dependent increase
- mRNA expression of aggrecan ([2]; BSO 0.2 mM and 1 mM): reduced in a concentration-dependent manner
- phosphorylation of the MAPKs p38, ERK, and JNK ([3]; 1 mM BSO): strongly phosphorylated
- intracellular level of reactive oxygen species ([4]; 1 mM BSO for 24 hours): increase

SMILES: Cc1c(C)c2c(c(C)c1O)CCC(C)(CCCC(C)CCCC(C)CCCC(C)C)O2 (stereo not drawn) [α-tocopherol]
- increase in the expression of COX-2 by oxidative stress [5, 12]: significantly suppressed
- increase in the expression of MMP-3 by oxidative stress [5, 12]: significantly suppressed
- increase in the expression of TNF-α by oxidative stress [5, 12]: significantly suppressed
- reduction in the expression of aggrecan by oxidative stress [5, 12]: suppressed
- oxidative stress induced by the addition of TNF-α (gene expression of MMP-3, COX-2, and aggrecan) ([6]; 50 ng/ml TNF-α in the presence of 20 mM α-tocopherol): suppress

SMILES: CC(=O)N[C@@H](CS)C(=O)O [NAC, N-acetylcysteine]
- activation of the MAPK signaling cascade caused by stimulation with TNF-α [7]: suppressed
- intervertebral disc degeneration [8]: prevented
- QSI analysis (probability at zero displacement), difference between the puncture group and the NAC group ([9]; 5 rats per group): showed the difference
- QSI parameter values [9, 13]: significant difference
- effect of administration in an experiment using rats ([10]; 159 mg/kg/day): effective
- T2-weighted images, difference between the puncture group and the NAC group ([10]; 5 rats per group): rarely showed the difference
- T2 high-intensity area ([10]; NAC water (1 g/L, 159 mg/kg/day) from 1 week after puncture, MRI 2 months after puncture, NAC group compared with puncture group): significantly improved
- T2 mapping values obtained from T2-weighted images focused on the nucleus pulposus [10, 13]: did not significantly differ
- increase in the expression of COX-2 by oxidative stress [5, 14]: significantly suppressed
- increase in the expression of MMP-3 by oxidative stress [5, 14]: significantly suppressed
- increase in the expression of TNF-α by oxidative stress [5, 14]: significantly suppressed
- reduction in the expression of aggrecan by oxidative stress [5, 14]: suppressed
- phosphorylation of p38 MAPK ([3]; 100 µM hydrogen peroxide in the presence of 100 µM NAC, 15 minutes): significantly suppressed
- oxidative stress induced by the addition of TNF-α (gene expression of MMP-3, COX-2, and aggrecan) ([6]; 50 ng/ml TNF-α in the presence of 100 µM NAC): suppress
